Assay results from patent EP0164204A1, “Novel pharmaceutically useful pyrimidines” (FISONS plc, priority 1984, dated 1985).

Tested on: immune response to oxazolone
Assay: Rescue of the cyclophosphamide-inhibited delayed contact response to oxazolone in mice (Example A, b)
Assay type: in vivo
Conditions: Mus musculus, ip, 48 h; cyclophosphamide alone, 200mg/kg intraperitoneal, two days after sensitisation with oxazolone; C57B1 mice

Compound: O=P1(N(CCCl)CCCl)NCCCO1 (stereo not shown) [cyclophosphamide]
- inhibition at 200 mg/kg: 64%
